Reference: patent US4970215A, “Substituted 4-(quinolin-2-yl-methoxy)phenyl-acetic acid derivatives and anti-allergic use thereof” (Bayer Aktiengesellschaft, priority 1988, dated 1990)

The molecules below were run on lipoxygenase (assay: Lipoxygenase inhibition: release of leucotriene B4 (LTB4) from polymorphonuclear rat leucocytes (PMN) after Ca-ionophor, reverse phase HPLC). Conditions: RP-HPLC, read-out: LO inhibition IC50.
Type: cell-based
Description: The release of leucotriene B4 (LTB4) from polymorphonuclear rat leucocytes (PMN) following addition of substances and a Ca-ionophor was determined by means of reverse phase HPLC by the method of Borgeat, P. et al., Proc. Nat. Acad. Sci. (USA) 76, 2148-2152 (1979) as a measure of lipoxygenase inhibition. The values achieved in this test with some compounds according to the invention are listed by way of example in Table 1: […]

IC50 [nM]	Structure (SMILES)
140	O=C(O)C(CC1CC1)c1ccc(OCc2ccc3ccccc3n2)cc1 (stereo not drawn) [Example 7, 2-[4-(Quinolin-2-yl-methoxy)phenyl]-3-cyclopropylpropionic acid]
10	O=C(O)C(CC1CCCCC1)c1ccc(OCc2ccc3ccccc3n2)cc1 (stereo not drawn) [Example 8, 2-[4-(Quinolin-2-yl-methoxy)phenyl]-3-cyclohexylpropionic acid]
40	O=C(O)C(c1ccc(OCc2ccc3ccccc3n2)cc1)C1CCCC1 (stereo not drawn) [Example 9, 2-[4-(Quinolin-2-yl-methoxy)phenyl]-2-cyclopentylacetic acid]
